Values after ≈ are worked out from the molar mass of the structure shown.
What was measured:
Test in all cases: In vitro antibacterial evaluation: minimum inhibitory concentration (MIC), broth dilution method
Assay type in all cases: cell-based
Enterococcus sp. = conditions: broth dilution, 18 hours at 35° C.
Outline: (§1)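 Using Muller-Hinton II […] and an inoculum of 5×10^5 CFU/mL, antibiotic dilutions from 64 down to 0.06 μg/mL were tested following NCCLS M7-A2. The MIC is the lowest concentration inhibiting growth, including in methicillin-, penicillin- or vancomycin-resistant clinical isolates.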

Staphylococcus sp. = conditions: broth dilution, 18 hours at 35° C.; for MIC Staphylococcus aureus-SMITH (GC 4543): strain SMITH GC 4543
Outline: as §1

Streptococcus sp. = conditions: broth dilution, 18 hours at 35° C.
Outline: as §1

Escherichia coli = conditions: broth dilution, 18 hours at 35° C.
[1] = Enterococcus faecalis (GC 4553)
[2] = Streptococcus agalactiae (GC 4564)
[3] = Streptococcus pneumoniae (ATCC 6301)
[4] = Streptococcus pneumoniae (GC 1894)
[5] = Streptococcus pneumoniae (GC 4565)
[6] = Streptococcus pyogenes (GC 4563)

Structure (SMILES) | MIC Enterococcus avium (GC 4558) (Enterococcus sp.; Enterococcus avium (GC 4558)) [mg/L] | MIC Enterococcus faecalis (GC 4553) (Enterococcus sp.; [1]) [mg/L] | MIC Enterococcus faecium (GC 4557) (Enterococcus sp.; Enterococcus faecium (GC 4557)) [mg/L] | MIC Enterococcus avium (GC 4558) (Enterococcus sp.) [mg/L] | MIC Enterococcus faecalis (GC 4553) (Enterococcus sp.) [mg/L] | MIC Enterococcus faecium (GC 4557) (Enterococcus sp.) [mg/L] | MIC Staphylococcus aureus-SMITH (GC 4543) (Staphylococcus sp.) [mg/L] | MIC Streptococcus agalactiae (GC 4564) (Streptococcus sp.; [2]) [mg/L] | MIC Streptococcus pneumoniae (ATCC 6301) (Streptococcus sp.; [3]) [mg/L] | MIC Streptococcus pneumoniae (GC 1894) (Streptococcus sp.; [4]) [mg/L] | MIC Streptococcus pneumoniae (GC 4565) (Streptococcus sp.; [5]) [mg/L] | MIC Streptococcus pyogenes (GC 4563) (Streptococcus sp.; [6]) [mg/L] | MIC Streptococcus agalactiae (GC 4564) (Streptococcus sp.) [mg/L] | MIC Streptococcus pneumoniae (ATCC 6301) (Streptococcus sp.) [mg/L] | MIC Streptococcus pneumoniae (GC 1894) (Streptococcus sp.) [mg/L] | MIC Streptococcus pneumoniae (GC 4565) (Streptococcus sp.) [mg/L] | MIC Streptococcus pyogenes (GC 4563) (Streptococcus sp.) [mg/L] | MIC Escherichia coli (ATCC 25922) (Escherichia coli) [mg/L] | MIC Escherichia coli (GC 4559) (Escherichia coli) [mg/L] | MIC Escherichia coli (GC 4560) (Escherichia coli) [mg/L] | other results
CC(c1ccccc1)C1NC(=O)CNC(=O)C(CO)NC(=O)C(C(O)C2CNC(=N)N2C2OC(CO)C(O)C(O)C2O)NC(=O)C(C(O)C2CNC(=N)N2)NC(=O)C(Cc2ccc3oc(-c4ccoc4)nc3c2)NC1=O (stereo not drawn) [Example 38, Cyclo[3-[2-(3-furyl)-1,3-benzoxazol-5-yl]alanyl-3-(2-iminoimidazolidin-4-yl)seryl-3-(3-hexopyranosyl-2-iminoimidazolidin-4-yl)serylserylglycyl-β-methylphenylalanyl]] | 64 (≈ 60.3 µM) | 64 (≈ 60.3 µM) | 32 (≈ 30.1 µM) | 64 (≈ 60.3 µM) | 64 (≈ 60.3 µM) | 32 (≈ 30.1 µM) | 64 (≈ 60.3 µM) | 32 (≈ 30.1 µM) | 32 (≈ 30.1 µM) | 32 (≈ 30.1 µM) | 64 (≈ 60.3 µM) | 32 (≈ 30.1 µM) | 32 (≈ 30.1 µM) | 32 (≈ 30.1 µM) | 32 (≈ 30.1 µM) | 64 (≈ 60.3 µM) | 32 (≈ 30.1 µM) | 64 (≈ 60.3 µM) | 64 (≈ 60.3 µM) | 32 (≈ 30.1 µM) | MIC Coagulase Negative Staphylococcus (GC 4547) (Staphylococcus sp.): 32 mg/L (≈ 30.1 µM); MIC Coagulase Negative Staphylococcus (GC 4548) (Staphylococcus sp.): 32 mg/L (≈ 30.1 µM); MIC Coagulase Negative Staphylococcus (GC 4549) (Staphylococcus sp.): 64 mg/L (≈ 60.3 µM); MIC Coagulase Negative Staphylococcus (GC 4551) (Staphylococcus sp.): 64 mg/L (≈ 60.3 µM); MIC Coagulase Negative Staphylococcus (GC 6257) (Staphylococcus sp.): 16 mg/L (≈ 15.1 µM); MIC Staphylococcus aureus SMITH (GC 4543) (Staphylococcus sp.): 64 mg/L (≈ 60.3 µM); MIC Staphylococcus haemolyticus (GC 4546) (Staphylococcus sp.): 16 mg/L (≈ 15.1 µM)
CC(c1ccccc1)C1NC(=O)CNC(=O)C(CO)NC(=O)C(C(O)C2CNC(=N)N2C2OC(CO)C(O)C(O)C2O)NC(=O)C(C(O)C2CNC(=N)N2)NC(=O)C(Cc2ccc(O)c(NC(=S)Nc3cc(C(F)(F)F)cc(C(F)(F)F)c3)c2)NC1=O (stereo not drawn) [Example 24, Cyclo[glycyl-β-methylphenylalanyl-3-[[[3,5-bis(trifluoromethyl)phenyl]carbamothioyl]amino]-tyrosyl-3-(2-iminoimidazolidin-4-yl)seryl-3-(3-hexopyranosyl-2-iminoimidazolidin-4-yl)-serylseryl]] | 64 (≈ 50.9 µM) | 32 (≈ 25.5 µM) | 32 (≈ 25.5 µM) | 64 (≈ 50.9 µM) | 32 (≈ 25.5 µM) | 32 (≈ 25.5 µM) | >64 | >64 | >64 | 64 (≈ 50.9 µM) | >64 | 64 (≈ 50.9 µM) | >64 | >64 | 64 (≈ 50.9 µM) | >64 | 64 (≈ 50.9 µM) | >64 | >64 | 32 (≈ 25.5 µM) | MIC Enterococcus faecalis (ATCC 29212) (Enterococcus sp.; Enterococcus faecalis (ATCC 29212)): 64 mg/L (≈ 50.9 µM); MIC Enterococcus faecalis (GC 2242) (Enterococcus sp.; Enterococcus faecalis (GC 2242)): 64 mg/L (≈ 50.9 µM); MIC Enterococcus faecalis (GC 2691) (Enterococcus sp.; Enterococcus faecalis (GC 2691)): >64 mg/L; MIC Enterococcus faecalis (GC 3059) (Enterococcus sp.; Enterococcus faecalis (GC 3059)): >64 mg/L; MIC Enterococcus faecalis (GC 4552) (Enterococcus sp.; Enterococcus faecalis (GC 4552)): >64 mg/L; MIC Enterococcus faecalis (GC 4554) (Enterococcus sp.; Enterococcus faecalis (GC 4554)): >64 mg/L; MIC Enterococcus faecalis (GC 6189) (Enterococcus sp.; Enterococcus faecalis (GC 6189)): >64 mg/L; MIC Enterococcus faecium (GC 2243) (Enterococcus sp.; Enterococcus faecium (GC 2243)): 64 mg/L (≈ 50.9 µM); MIC Enterococcus faecium (GC 4556) (Enterococcus sp.; Enterococcus faecium (GC 4556)): 64 mg/L (≈ 50.9 µM); MIC Enterococcus faecalis (ATCC 29212) (Enterococcus sp.): 64 mg/L (≈ 50.9 µM); MIC Enterococcus faecalis (GC 2242) (Enterococcus sp.): 64 mg/L (≈ 50.9 µM); MIC Enterococcus faecalis (GC 2691) (Enterococcus sp.): >64 mg/L; MIC Enterococcus faecalis (GC 3059) (Enterococcus sp.): >64 mg/L; MIC Enterococcus faecalis (GC 4552) (Enterococcus sp.): >64 mg/L; MIC Enterococcus faecalis (GC 4554) (Enterococcus sp.): >64 mg/L; MIC Enterococcus faecalis (GC 6189) (Enterococcus sp.): >64 mg/L; MIC Enterococcus faecium (GC 2243) (Enterococcus sp.): 64 mg/L (≈ 50.9 µM); MIC Enterococcus faecium (GC 4556) (Enterococcus sp.): 64 mg/L (≈ 50.9 µM)
